# Experimental data taken from patent publication US20110150914A1, “COMPOSITIONS AND METHODS FOR DENGUE VIRUS (DV) TREATMENT AND VACCINATION” (priority 2008, published 2011).
# Ends that are not written are not given here.
# Legend:
# CD8^+ T cells [1] = test: Intracellular cytokine staining (IFN-γ), splenocytes of S221-infected wild-type mice; type: cell-based, C57BL/6 mice
# Description: (§1) All Ab were purchased from eBioscience with the exception of anti-CD8α-PerCP and anti-CD107a-FITC which were obtained from BD Biosciences. RBC in blood were lysed using RBC lysis buffer (eBioscience). For surface staining, splenocytes or blood cells were washed, incubated with supernatant from 2.4G2-producing hybridoma cells to block Fc receptors, and labeled with anti-CD8α-PerCP, anti-CD44-APC, and anti-CD62L-PE. For intracellular cytokine staining, 10^6 splenocytes or 10^5 blood cells were plated in 96-well U-bottom plates and stimulated with individual DENV peptides (0.1 μg/ml) in the presence of brefeldin A (GolgiPlug, BD Biosciences) for 5 h. For CD107a staining, CD107a-FITC (or rat IgG2a-FITC) was added to the wells at the same time as the peptide. Cells were washed, incubated with 2.4G2 supernatant, labeled with anti-CD8α-PerCP, fixed and permeabilized using the BD Cytofix/Cytoperm Kit, and stained with anti-IFN-γ-APC and anti-TNF-α-PE. Samples were read on a FACS Caliber (BD Biosciences) and analyzed using FloJo software (Tree Star, Inc.)
# To confirm that the IFN-γ response to the MHC class I-binding DENV peptides was mediated by CD8^+ T cells, intracellular cytokine staining (ICS) on CD8^+ T cells isolated from S221-infected wild-type mice was performed. Splenocytes were harvested from C57BL/6 mice 7 days after infection with 10^11 genomic equivlalents (GE) S221 and were re-stimulated in vitro with individual DENV2 peptides or an irrelevant peptide (irr) at 0.1 μg/ml in the presence of brefeldin A for 5 h. Cells were then stained for surface CD8 and intracellular IFN-γ and analyzed by flow cytometry. […] The percent of CD8^+ T cells producing IFN-γ is indicated. Referring to FIG. 2B, the figure is a summary of the DENV2-specific CD8^+ IFN-γ^+ response. The response to the irrelevant control peptide was subtracted from the responses to each DENV2 peptide. Each symbol represents one mouse and the bar represents the geometric mean. The identification of the 12 positive peptides for S221 was confirmed by the intracellular cytokine staining (ICS) (FIG. 2A), and the response to the 8 most dominant peptides was determined (FIG. 2B). The responses ranged from 0.14% recognizing NS2A 36 to 9.8% of CD8^+ T cells recognizing NS4B 99.
# Splenocytes were harvested from naïve C57BL/6 mice or mice 7 days after infection with 10^11 GE of S221. The percent of CD8^+ T cells expressing CD44 and CD62L was determined in four independent studies (FIG. 3A). On day 7 after infection, splenocytes were stimulated with the eight major DENV2 peptides (individually; at 0.1 μg/ml) in the presence of brefeldin A, and stained for surface CD8 and intracellular IFN-γ. The percent of CD8^+ T cells producing IFN-γ in response to the irrelevant control peptide was subtracted from the response to each DENV2 peptide to determine the net response. The net responses to the eight major DENV2 peptides were added to determine the percent of DENV2-specific CD44^hi, CD62^lo, and CD44^hiCD62L^lo CD8^+ T cells (FIG. 3B). The data are expressed as the mean percent±SEM of 11-14 mice tested in at least four independent experiments.
# CD8^+ T cells [2] = test: Intracellular cytokine staining (IFN-γ), splenocytes of S221-infected IFN-α/βR^−/− mice; type: cell-based; settings: day 7 after 10^10 GE S221
# Description: as §1
# The S221-specific CD8^+ T cell response in the IFN-α/βR^−/− mice was studied. […]
# The S221-specific CD8^+ T cell response in IFN-α/βR^−/− mice was further studied. […] Referring to FIGS. 5C, 5E and 5F, the number of splenic CD8^+ T cells in naïve (n=4) and infected (n=7) mice was measured (results described above). […] The data are expressed as the percent±SEM of seven mice tested in three independent experiments.
# The initial epitope identification studies were performed in wild-type mice. […] Cells were then stained for surface CD8 and intracellular IFN-γ and analyzed by flow cytometry. […] Results are expressed as the mean±SEM of 13 wild-type and 7 IFN-α/βR^−/− mice were tested in at least three independent experiments. Referring FIGS. 8C and D, the figures show kinetics of the DENV-specific CD8^+ T cell response as determined by the study. […]
sequence,measurement,setting,value
YSQVNPITL [NS4B99-107],percent of CD8^+ T cells producing IFN-γ / recognizing the peptide,"CD8^+ T cells [1]; wild-type C57BL/6, day 7 after 10^11 GE S221, peptide 0.1 μg/ml, 5 h",9.8%
same,share of the DENV2-specific response,CD8^+ T cells [1]; wild-type C57BL/6 mice,30%
same,% of splenic CD8^+ T cells (corresponding to average number),"CD8^+ T cells [1]; wild-type mice, day 7 after 10^11 GE S221",5.9%
same,number of CD8^+ T cells producing IFN-γ (average),"CD8^+ T cells [1]; wild-type mice, spleen, day 7 after 10^11 GE S221",6.3×10^5 CD8^+ T cells
same,% of splenic CD8^+ T cells recognizing the peptide,CD8^+ T cells [2],16.5%
same,number of CD8^+ T cells producing IFN-γ (average),CD8^+ T cells [2]; spleen,1.1×10^7 CD8^+ T cells
